Results published in patent US5140039A, “Aminomethyl-thiochroman compounds” (Abbott Laboratories, priority 1991, dated 1992).
Structures can show the parent of a compound that is named as a salt.

Assays:
alpha-2-receptor = assay: radioligand binding, [3H]-rauwolscine, rat cerebral cortices; details: for Ki: rat cerebral cortices, [3H]-rauwolscine; for alpha-2-Selectivity Ki alpha-1/Ki alpha-2: ratio Ki alpha-1/Ki alpha-2
Method: (§1) The compounds were assessed for alpha-adrenergic receptor subtype selectivity by use of radioligand binding techniques as described previously (DeBernardis et.al. J. Med. Chem. 28 1398 (1985)). Affinity for the alpha-1-receptor was assessed using rat liver homogenates and the radioligand [^3 H]-prazosin; whereas for the alpha-2-receptor, rat cerebral cortices and the radioligand [^3 H]-rauwolscine were utilized. Results obtained from the binding studies are shown in Table 1 for a representative sample of compounds disclosed herein.

alpha-1-receptor = molecular target: T1, alpha-1-receptor (Rattus norvegicus, UniProt P15823); assay: radioligand binding, [3H]-prazosin, rat liver homogenates
T1 construct: rat liver homogenates; from tissue; host or cells: rat liver homogenate
T1 sequence (P15823 1-515): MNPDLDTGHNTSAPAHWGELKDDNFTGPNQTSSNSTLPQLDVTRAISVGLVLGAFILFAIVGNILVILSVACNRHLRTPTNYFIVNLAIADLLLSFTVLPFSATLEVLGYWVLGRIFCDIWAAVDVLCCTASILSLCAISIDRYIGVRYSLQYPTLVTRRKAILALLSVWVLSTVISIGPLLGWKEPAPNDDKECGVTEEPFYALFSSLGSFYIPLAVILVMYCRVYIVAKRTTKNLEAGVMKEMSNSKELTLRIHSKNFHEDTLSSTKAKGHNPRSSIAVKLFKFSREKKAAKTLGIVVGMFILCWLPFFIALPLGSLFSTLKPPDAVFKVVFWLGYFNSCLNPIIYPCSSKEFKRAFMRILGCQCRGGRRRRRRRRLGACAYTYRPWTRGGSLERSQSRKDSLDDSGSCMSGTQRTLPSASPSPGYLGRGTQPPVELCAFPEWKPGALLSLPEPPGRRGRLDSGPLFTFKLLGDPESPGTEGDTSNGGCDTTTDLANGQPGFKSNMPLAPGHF
Method: as §1

| Structure (SMILES) | Ki (alpha-2-receptor) [nM] | alpha-2-Selectivity Ki alpha-1/Ki alpha-2 (alpha-2-receptor) | Ki (alpha-1-receptor) [nM] |
| --- | --- | --- | --- |
| COc1ccc2c(c1)OCCC2CN(C)CCc1cccs1 (stereo not drawn) [Example 7, 4-((N-Methylamino)methyl-N-(2-(2-thienyl)ethyl))-7-methoxy chroman hydrochloride] | 10 | 59 | 590 |
| COc1ccc2c(c1OC)SCCC2CN(C)CCc1cccs1 (stereo not drawn) [Example 13, 4-((N-Methylamino)methyl-N-(2-(2-thienyl)ethyl))-7,8-dimethoxy thiochroman hydrochloride] | 3 | 32 | 96 |
| COc1ccc2c(c1OC)OCCC2CN(C)CCc1cccc(F)c1 (stereo not drawn) [Example 25, 4-(N-Methylamino)methyl-N-(2-(m-fluorophenyl)ethyl))-7,8-dimethoxy chroman hydrochloride] | 3 | 183 | 550 |
| COc1ccc2c(c1OC)OCCC2CN(C)CCc1cccs1 (stereo not drawn) [Example 26, 4-((N-Methylamino)methyl-N-(2-(2-thienyl)ethyl))-7,8-dimethoxy chroman hydrochloride] | 5.8 | 1724 | 10000 |
| CCN(CCc1cccs1)CC1CCOc2c1ccc(OC)c2C (stereo not drawn) [Example 28, 4-((N-Ethylamino)methyl-N-(20(2-thienyl)ethyl)-7-methoxy-8-methylchroman hydrochloride] | 34 | 29 | 1000 |

The remaining lines, values ahead:

| Ki (alpha-2-receptor) [nM] | alpha-2-Selectivity Ki alpha-1/Ki alpha-2 (alpha-2-receptor) | Ki (alpha-1-receptor) [nM] | Structure (SMILES) |
| --- | --- | --- | --- |
| 24 | 11 | 260 | COc1ccc2c(c1)OCCC2CN(C)CCc1cccc(Cl)c1 (stereo not drawn) [Example 4, 4-((N-Methylamino)methyl-N-(2-(m-chlorophenyl)ethyl))-7-methoxy chroman hydrochloride] |
| 34 | 33 | 1140 | CCN(CCc1cccc(Cl)c1)CC1CCOc2cc(OC)ccc21 (stereo not drawn) [Example 6, 4-((N-Ethylamino)methyl-N-(2-(m-chlorophenyl)ethyl))-7-methoxy chroman hydrochloride] |
